From patent US20250268844A1, “ANTICANCER AGENTS BASED ON CYCLOPENTENONES” (UNIVERSITY OF CRETE, priority 2022, published 2025)
Entries after “also recorded” stand apart in the source; their conditions may differ.

How the values were obtained:
Type in all cases: cell-based, human
[1] = tested on: SKOV3 ovarian carcinoma cells; test: MTT conversion assay, SKOV3; details: Homo sapiens, SK-OV-3, 48 hrs treatment
Protocol: (§1) In particular, Enone-1 and Enone-2 were tested for cytotoxic activity in 17 cell lines representing a broad spectrum of human tumors. They include human colorectal carcinoma (Caco2, RKO, HCT15, HT29), liver (HepG2), lung (A549), ovarian carcinoma (A2780, 2780CP, AGE60, SKOV3), anaplastic large cell lymphoma (Mac1 and Mac2a), breast carcinoma (MDA-MB-231), cervical (HeLa), bladder cancer (VM-CUB-1), melanoma (BRO), and multiple myeloma (MR20).
(§2) Each assay was performed in triplicate and repeated in 2-3 independent experiments. Specifically, to measure cell survival, 20 μl of 10 mg/ml MTT (3-([…])-2,5-diphenyl tetrazolium bromide; Sigma) was added to each well and the plates were incubated at 37° C. in 5% CO2 for 3 hours. The supernatant was removed and the formed crystals were dissolved in 200 μl dimethyl sulphoxide. The plates were then analysed at 450 nm on a plate reader. Growth inhibition (reduction in survival) was calculated by expressing the differences in optical densities between treatment wells and control wells as a percentage of the control.

[2] = tested on: HT29 colorectal carcinoma cells; test: MTT conversion assay, HT29; details: Homo sapiens, HT-29, HT29, colon, 48 hrs treatment
Protocol: as §1, §2

A549 lung cells = test: MTT conversion assay, A549; details: Homo sapiens, 48 hrs treatment
Protocol: as §1, §2

[3] = tested on: MR20 multiple myeloma cells; test: MTT conversion assay, MR20; details: Homo sapiens, Multiple myeloma cell, 48 hrs treatment
Protocol: as §1, §2

[4] = tested on: HeLa cervical carcinoma cells; test: MTT conversion assay, HeLa; details: Homo sapiens, 48 hrs treatment
Protocol: as §1, §2

[5] = tested on: VM-CUB-1 bladder cancer cells; test: MTT conversion assay, VM-CUB-1; details: Homo sapiens, 48 hrs treatment
Protocol: as §1, §2

BRO melanoma cells = test: MTT conversion assay, BRO; details: Homo sapiens, 48 hrs treatment
Protocol: as §1, §2

[6] = tested on: A2780 ovarian carcinoma cells; test: Cell cycle analysis by propidium iodide flow cytometry; details: 2.5 μM or 5 μM for 24 hours
Protocol: The effect of Enone-2 on cell cycle progression was tested to determine if it causes cell cycle arrest, in addition to inducing cell death. To this end, A2780 ovarian carcinoma cells were treated with 2.5 μM or 5 μM Enone-2 for 24 hours, cells were detached, fixed in 1% Neutral Buffered Formalin and stained with 5 μg/ml propidium iodide. Cell suspensions were next analyzed for fluorescence intensities (DNA content) by quantitative flow cytometry.

[7] = tested on: mdm2, p21, bax and bbc3/puma; test: RT-qPCR of p53 target genes in A2780 cells; details: 2.5 μM
Protocol: FIG. 8: Enones induce the p53 pathway. […] Cell lysates were analyzed for p53 and GAPDH (loading control). (B) A2780 cells were cultured in the presence or absence of 2.5 μM for the indicated time points before being analyzed for p53 and GAPDH levels. (C) Treatment of A2780 cells with 2.5 μM Enone-2 results in the up-regulation of p53-regulated genes (*p<0.05; **p<0.01; ***p<0.001, n=4). (D) Induction of p53 accumulation in AGE60 ovarian carcinoma cells following 6 or 14 hr exposure to 2.5 μM Enone-2. (E) Enone-1 induces the p53 pathway in A2780 cells which were cultured in the presence of 2.5 μM of the drug and analyzed as in (B). (F) Treatment of A2780 cells with 2.5 μM Enone-2 results in the up-regulation of p53-regulated genes (*p<0.05; **p<0.01; ***p<0.001, n=3).
The effects of Enone-2 on p53 and p53-dependent transcription of cell cycle and cell death-associated genes was confirmed by immunoblotting for p53 and by reverse transcription qPCR (RT-qPCR) for mdm2, p21, bax and bbc3/puma, established p53 target genes.

p53 = test: siRNA knockdown of Chek2 or Rpl11 and drug-induced p53 activation in A2780 cells; details: A2780 transiently transfected with siRNAs
Protocol: FIG. 9. […] A2780 cells were cultured for 6 hrs in the presence of drug concentrations as indicated. (B) Effects of siRNA targeting RPL11 (siRPL11), Chek2 (siChek2) or the unrelated luciferase (Luci) genes on RPL11 and Chek2 mRNA levels quantified by RT-PCR. (C) Effects of siRpl11 on Enone-2 and oxaliplatin (OXA)-induced p53 activation. Expression levels relative to GAPDH are indicated; untreated controls (CNT) were given the arbitrary value of 1. […] Expression levels relative to GAPDH are indicated; untreated controls (CNT) were given the arbitrary value of 1.
To further validate this observation, A2780 cells were transiently transfected with siRNAs targeting Chek2 which is required for DDR-induced p53, or Rpl11 which is required for RS-mediated p53 activation. The efficacy and specificity of the knockdowns were confirmed by RT-qPCR (FIG. 9B).

[8] = tested on: 2780CP ovarian carcinoma cells; test: Combination with bortezomib in 2780CP cells; details: 2 hours bortezomib pre-treatment, then 48 hour co-culture with Enone-2
Protocol: The arrows in the microphotographs of (A) depict 2780CP cells with apoptotic morphology following treatment with 5 nM bortezomib in combination with 0.5 μM Enone-2.
Proteasome inhibitors have been reported to enhance platinum-induced toxicity in cis-platin-resistant ovarian cancer cells. […] To address this hypothesis, 2780CP ovarian carcinoma cells were pre-treated for 2 hours with different concentrations of the proteasomal inhibitor bortezomib, a drug in clinical use, followed by a 48 hour co-culture with Enone-2.

[9] = tested on: A2780 ovarian carcinoma cells; test: Gene expression profiling (RNAseq) of A2780 cells
From the text: FIG. 7: Schematic representation of KEGG p53 pathway-related genes and their cellular roles.
Activation of p53 occurs in response to DNA damage (so called “DNA damage response”, DDR) or ribosomal stress (RS) and conveys signals that arrest cell cycle and induce cell death.
This group entailed the following gene transcripts: ZFAND2A; KCTD10; MDM2; PLK2; DDIT3; DNAJB9; PSMD6; RYBP; PSMD10; SPSB3; PSMB8; PELI1; RNF103; DNAJB2; UBE2H; ATXN3; PSEN1; RCHY1; UBR1; ANAPC16; JKAMP; DDA1; PSMA6; TMUB2; TRIM72; SPOPL; UBE2J1; ARIH1; NPLOC4; CDC26; USP19; UFD1; TNFAIP1; PSMB6; DERL1; UBE2V2; SELENOS; PSMA1; UBE2.

## C[C@@]1(O)C=CC(=O)[C@H]1c1ccc(F)c2ccccc12 (stereo in doubt) [Enone-2, 5-(4-fluoronaphthalen-1-yl)-4-hydroxy-4-methylcyclopent-2-en-1-one]
[1]
  IC50: 0.3 µM
[2]
  IC50: 0.9 µM
A549 lung cells
  IC50: 1.5 µM
[3]
  IC50: 0.1 µM
[4]
  IC50: 6.2 µM
[5]
  IC50: 0.8 µM
BRO melanoma cells
  IC50: 3.8 µM
[6]
  cell cycle progression (DNA content): accumulation of cells in the G2/M phase of the cell cycle in a concentration dependent manner
[7]
  mdm2, p21, bax and bbc3/puma mRNA (p53-dependent gene expression): time-dependent upregulation
p53
  effect of Chek2 or Rpl11 siRNA knockdown on drug-induced p53 activation: only Rpl11 knockdown that affected Enone-2 mediated p53 activation
[8]
  cytotoxicity of combination with bortezomib compared to each agent alone: augmentation of cytotoxicity compared to each agent alone; also recorded: higher cytotoxicity in relation to each agent alone
[9]; 2.5 μM for 6 hours, bioinformatic analysis
  transcripts of proteasome-mediated ubiquitin-dependent protein catabolic process: enrichment of up-regulated transcripts
[9]; 2.5 μM for 6 hrs or 14 hrs
  p53 pathway activation (gene expression profiling): activation of the p53 pathway
